Assay: Respiratory rate (vital signs)
Conditions: 30 mg
Method: The Investigational Medicinal Product (IMP) R(−)-ketamine hydrochloride in sterile water for intravenous injection was investigated as an […] treatment of TRD. The International Union of Pure and Applied Chemistry (IUPAC) name is of the IMP is (2R)-2-(2-chlorophenyl)-2-(methylamino)cyclohexan-1-one. Subjects received the solution at either 30 mg or 60 mg dose, or a placebo. The IMP or placebo was administered on Day 1 as a single IV infusion via an electronic infusion pump over 40 minutes. The duration of study participation for each subject was up to 29 days including a screening period, a 3-day in-clinic visit, and 2 follow-up visits. 101 subjects were enrolled in approximately 20 study centers in the EU and the US.
Tympanic or temporal temperature, heart rate, blood pressure (SBP/DBP), respiratory rate, and SpO2 were assessed. Blood pressure and pulse measurements will be assessed with a completely automated device while the subject is supine or semi-supine. Manual techniques will be used only if an automated device is not available. Blood pressure and pulse measurements should be preceded by at least 5 minutes of rest for the subject in a quiet setting without distractions (e.g., television, cell phones). An abnormal blood pressure value at screening may be repeated once after 5 minutes of relaxation to determine the subject's eligibility. Blood pressure was recorded using the same arm and position (supine or semi-supine) throughout the study, where possible. Vital signs (to be taken before blood collection for laboratory tests) consisted of 1 pulse and 3 blood pressure measurements (3 consecutive blood pressure readings will be recorded at intervals of at least 1 minute). The average of the 3 blood pressure readings was recorded in the CRF. A pulse oximeter was used to measure peripheral capillary oxygen saturation (SpO2) continuously from pre-dose until 4-hours post-dose. A pulse oximeter was clipped onto the finger or foot of the subject, and light will be sent through the finger or foot and measured on the other side.
In these tables, baseline value is defined as the last non-missing value prior to study drug administration.

CN[C@@]1(c2ccccc2Cl)CCCCC1=O.Cl [R(−)-ketamine, (2R)-2-(2-chlorophenyl)-2-(methylamino)cyclohexan-1-one]
Respiratory Rate, Max (Day 1, 15 minutes): 22 breaths/minute | Respiratory Rate, Mean (Day 1, 15 minutes): 16.0 breaths/minute | Respiratory Rate, Median (Day 1, 15 minutes): 16.0 breaths/minute | Respiratory Rate, Min (Day 1, 15 minutes): 14 breaths/minute | Respiratory Rate, Max (Day 1, 40 minutes): 18 breaths/minute | Respiratory Rate, Mean (Day 1, 40 minutes): 15.7 breaths/minute | Respiratory Rate, Median (Day 1, 40 minutes): 16.0 breaths/minute | Respiratory Rate, Min (Day 1, 40 minutes): 13 breaths/minute | Respiratory Rate, Max (Day 1, 60 minutes): 17 breaths/minute | Respiratory Rate, Mean (Day 1, 60 minutes): 15.4 breaths/minute | Respiratory Rate, Median (Day 1, 60 minutes): 15.5 breaths/minute | Respiratory Rate, Min (Day 1, 60 minutes): 14 breaths/minute | Respiratory Rate, Max (Day 1, 2 hours): 18 breaths/minute | Respiratory Rate, Mean (Day 1, 2 hours): 15.9 breaths/minute | Respiratory Rate, Median (Day 1, 2 hours): 16.0 breaths/minute | Respiratory Rate, Min (Day 1, 2 hours): 13 breaths/minute | Respiratory Rate, Max (Day 1, 4 hours): 21 breaths/minute | Respiratory Rate, Mean (Day 1, 4 hours): 16.1 breaths/minute | Respiratory Rate, Median (Day 1, 4 hours): 16.0 breaths/minute | Respiratory Rate, Min (Day 1, 4 hours): 14 breaths/minute | Respiratory Rate, Max (Day 1, 6 hours): 18 breaths/minute | Respiratory Rate, Mean (Day 1, 6 hours): 15.9 breaths/minute | Respiratory Rate, Median (Day 1, 6 hours): 16.0 breaths/minute | Respiratory Rate, Min (Day 1, 6 hours): 14 breaths/minute | Respiratory Rate, Max (Day 2 - Discharge): 21 breaths/minute | Respiratory Rate, Mean (Day 2 - Discharge): 15.9 breaths/minute | Respiratory Rate, Median (Day 2 - Discharge): 16.0 breaths/minute | Respiratory Rate, Min (Day 2 - Discharge): 14 breaths/minute | Respiratory Rate, Max (Day 8): 18 breaths/minute | Respiratory Rate, Mean (Day 8): 15.9 breaths/minute | Respiratory Rate, Median (Day 8): 16.0 breaths/minute | Respiratory Rate, Min (Day 8): 14 breaths/minute | Respiratory Rate, Max (Day 15): 18 breaths/minute | Respiratory Rate, Mean (Day 15): 15.7 breaths/minute | Respiratory Rate, Median (Day 15): 16.0 breaths/minute | Respiratory Rate, Min (Day 15): 14 breaths/minute | Respiratory Rate, Change from Baseline, Max (to Day 1, 15 minutes): 3 breaths/minute | Respiratory Rate, Change from Baseline, Mean (to Day 1, 15 minutes): 0.1 breaths/minute | Respiratory Rate, Change from Baseline, Median (to Day 1, 15 minutes): 0.0 breaths/minute | Respiratory Rate, Change from Baseline, Min (to Day 1, 15 minutes): −3 breaths/minute | Respiratory Rate, Change from Baseline, Max (to Day 1, 40 minutes): 2 breaths/minute | Respiratory Rate, Change from Baseline, Mean (to Day 1, 40 minutes): −0.2 breaths/minute | Respiratory Rate, Change from Baseline, Median (to Day 1, 40 minutes): 0.0 breaths/minute | Respiratory Rate, Change from Baseline, Min (to Day 1, 40 minutes): −5 breaths/minute | Respiratory Rate, Change from Baseline, Max (to Day 1, 60 minutes): 3 breaths/minute | Respiratory Rate, Change from Baseline, Mean (to Day 1, 60 minutes): −0.4 breaths/minute | Respiratory Rate, Change from Baseline, Median (to Day 1, 60 minutes): 0.0 breaths/minute | Respiratory Rate, Change from Baseline, Min (to Day 1, 60 minutes): −5 breaths/minute | Respiratory Rate, Change from Baseline, Max (to Day 1, 2 hours): 3 breaths/minute | Respiratory Rate, Change from Baseline, Mean (to Day 1, 2 hours): −0.1 breaths/minute | Respiratory Rate, Change from Baseline, Median (to Day 1, 2 hours): 0.0 breaths/minute | Respiratory Rate, Change from Baseline, Min (to Day 1, 2 hours): −2 breaths/minute | Respiratory Rate, Change from Baseline, Max (to Day 1, 4 hours): 2 breaths/minute | Respiratory Rate, Change from Baseline, Mean (to Day 1, 4 hours): 0.2 breaths/minute | Respiratory Rate, Change from Baseline, Median (to Day 1, 4 hours): 0.0 breaths/minute | Respiratory Rate, Change from Baseline, Min (to Day 1, 4 hours): −2 breaths/minute | Respiratory Rate, Change from Baseline, Max (to Day 1, 6 hours): 2 breaths/minute | Respiratory Rate, Change from Baseline, Mean (to Day 1, 6 hours): −0.0 breaths/minute | Respiratory Rate, Change from Baseline, Median (to Day 1, 6 hours): 0.0 breaths/minute | Respiratory Rate, Change from Baseline, Min (to Day 1, 6 hours): −3 breaths/minute | Respiratory Rate, Change from Baseline, Max (to Day 2 - Discharge): 1 breaths/minute | Respiratory Rate, Change from Baseline, Mean (to Day 2 - Discharge): −0.1 breaths/minute | Respiratory Rate, Change from Baseline, Median (to Day 2 - Discharge): 0.0 breaths/minute | Respiratory Rate, Change from Baseline, Min (to Day 2 - Discharge): −4 breaths/minute | Respiratory Rate, Change from Baseline, Max (to Day 8): 3 breaths/minute | Respiratory Rate, Change from Baseline, Mean (to Day 8): −0.1 breaths/minute | Respiratory Rate, Change from Baseline, Median (to Day 8): 0.0 breaths/minute | Respiratory Rate, Change from Baseline, Min (to Day 8): −5 breaths/minute | Respiratory Rate, Change from Baseline, Max (to Day 15): 1 breaths/minute | Respiratory Rate, Change from Baseline, Mean (to Day 15): −0.3 breaths/minute | Respiratory Rate, Change from Baseline, Median (to Day 15): 0.0 breaths/minute | Respiratory Rate, Change from Baseline, Min (to Day 15): −6 breaths/minute

— patent US20260027068A1, “METHODS OF ADM[…]-KETAMINE” (Perception Neuroscience, Inc., priority 2022, published 2026)
